This note sets out measurements from patent US20160368853A1, “MONOESTERS, INNER COMPLEX SALTS OR MONOESTER SALTS OF HEXAHYDRO-BETA-ACID AND APPLICATION THEREOF AS ANIMAL FEED ADDITIVES” (GUANGZHOU INSIGHTER BIOTECHNOLOGY CO., LTD., priority 2014, published 2016).

Series [1] is described as follows: Thermo stability test of esters and/or salts of hexahydro-β-acid (2% premix, 100° C., HPLC). As to conditions: premix with corncob powder, initial content 2.0%, oven 100° C. The format is physicochemical. How it is done:
Samples (the premixes) were placed in crucibles, and then placed in oven at 100° C. for different durations. Then 1.0 g of each of the samples (three duplicate samples from each sample) and 50 ml of ethanol were added into a conical flask, followed by the addition of 100 μL of concentrated hydrochloric acid. The mixture was then subjected to sonication for 5 minutes, and then filtrated. The filtrate was transferred into a 50 ml volumetric flask, topped up to the final volume with ethanol, and then filtered with a 0.45 μm microporous membrane and subjected to HPLC analysis.

Series [2] relates to Duroc-Yorkshire-Landrace crossbred lean pigs. Kind of series: Application effect in pig feed (14 days feeding trial). The format is in vivo. As to conditions: for Average daily weight gain / Average weight gain / Feed conversion efficiency / Consumption: pigs; for Consumption: 20 pigs. The source says: 120 67-day-aged, Duroc-Yorkshire-Landrace crossbred lean pigs similar in weight were randomly divided into six groups, 20 pigs in each group.

The subject of series [3] is fast-grown yellow feather broilers (female). The experiment in a line: Application effect in broiler feed (30 days feeding trial). Type of series: in vivo. As to conditions: for Average daily weight gain / Average weight gain / Feed conversion efficiency / Survival rate / Consumption: broilers, 30 days; for Consumption: 100 broilers per group. The source says: 500 1-day-aged, healthy, fast-grown yellow feather broilers (female) in the same growing state and similar in weight were randomly divided into five groups according to table 2, 100 broilers in each group. Broilers of each group were fed with different dosages of mono decanoate ester of hexahydro-β-acid or hexahydro-β-acid.

Where [4] appears, read: Group 3, 5 mg/kg mixed with feed.
The mark [5] stands for this setting: Group 4, 25 mg/kg mixed with feed.
The mark [6] stands for this setting: Group 5, 5 mg/kg mixed with feed.
Where [7] appears, read: Group 6, 25 mg/kg mixed with feed.

Take “Cobalt Salt of Acetate Ester of hexahydro-β-acid”: in series [1], the “Content when being heated at 100° C. for 20 h” value (“Content … for 20 h” for short) is listed as 0.17% and the “Content when being heated at 100° C. for 44 h” value (“Content … for 44 h” for short) is 0.12%.

As to “Ferrous Salt of Acetate Ester of hexahydro-β-acid”, in series [1], the “Content … for 20 h” value is recorded as 1.69% and the “Content … for 44 h” value amounted to 1.63%.

Consider “calcium salt of acetate ester of hexahydro-β-acid”, for which, in series [1], the “Content … for 20 h” value amounted to 1.21% and the “Content … for 44 h” value amounted to 0.31%.

Consider calcium salt of hexahydro-β-acid, for which, in series [1], the “Content … for 20 h” value came out at 0.35% and the “Content … for 44 h” value is recorded as 0.09%.

On to cetylate ester of hexahydro-β-acid, for which, in series [2] (in words), the “feed conversion efficiency of the pigs” value is recorded as “significantly improved” and the “weight gain of the pigs” value is listed as “significantly improved”. Besides, in series [2] (setting [4]), the “Average daily weight gain” value is recorded as 0.512 kg/day, the Average weight gain was found to be 7.18 kg, the Feed conversion efficiency was 2.078 and the Consumption was 298.4 kg. Also, in series [2] (setting [5]), the “Average daily weight gain” value came to 0.570 kg/day, the Average weight gain is 7.985 kg, the Feed conversion efficiency came to 1.706 and the Consumption was 272.5 kg. Also, in series [2] (setting [6]), the “Average daily weight gain” value came to 0.508 kg/day, the Average weight gain is listed as 7.11 kg, the Feed conversion efficiency came to 1.949 and the Consumption came out at 277.2 kg. In series [2] (setting [7]), the “Average daily weight gain” value is 0.580 kg/day, the Average weight gain turned out to be 8.12 kg, the Feed conversion efficiency came out at 1.690 and the Consumption was found to be 274.5 kg. Moreover, in series [1], the “Content … for 20 h” value is recorded as 1.98% and the “Content … for 44 h” value is given as 1.93%.

With “copper salt of acetate ester of hexahydro-β-acid”, in series [1], the “Content … for 20 h” value stood at 1.50% and the “Content … for 44 h” value was 1.28%.

With ferrous salt of hexahydro-β-acid, in series [1], the “Content … for 20 h” value is 0.14% and the “Content … for 44 h” value amounted to 0.05%.

As for hexahydro-β-acid [reference compound], in series [3] (2 ppm mixed with feed), the “Average daily weight gain” value is given as 24.83 g, the Average weight gain is on record as 745 g, the Feed conversion efficiency was 1.983 and the Survival rate is 100%. In series [3] (2 ppm mixed with feed), this substance gave a Consumption of 147.76 kg. Also, in series [3] (20 ppm mixed with feed), the “Average daily weight gain” value is on record as 25.26 g, the Average weight gain stood at 758 g, the Feed conversion efficiency worked out at 1.968 and the Survival rate was 100%. For the same substance, the Consumption in series [3] (20 ppm mixed with feed) is recorded as 149.18 kg. Besides, in series [1], the “Content … for 20 h” value was found to be 0.06% and the “Content … for 44 h” value amounted to 0%.

As for laurate ester of hexahydro-β-acid, in series [1], the “Content … for 20 h” value was 2.0% and the “Content … for 44 h” value is 1.96%.

As for “magnesium salt of acetate ester of hexahydro-β-acid”, in series [1], the “Content … for 20 h” value was 1.42% and the “Content … for 44 h” value was 0.7%.

Turning to magnesium salt of hexahydro-β-acid, in series [1], the “Content … for 20 h” value worked out at 1.49% and the “Content … for 44 h” value came to 0.91%.

For the substance “manganese salt of acetate ester of hexahydro-β-acid”, in series [1], the “Content … for 20 h” value amounted to 0% and the “Content … for 44 h” value came out at 0%.

For mono acetate ester of hexahydro-β-acid, in series [1], the “Content … for 20 h” value is given as 1.52% and the “Content … for 44 h” value is listed as 1.11%.

For “mono decanoate ester of hexahydro-β-acid”, in series [3] (30 days test period, in words), the “feed conversion efficiency of the broilers” value is reported as “significantly improved” and the “weight gain of the broilers” value was “significantly improved”. For the same substance, in series [3] (2 ppm mixed with feed), the “Average daily weight gain” value stood at 25.6 g, the Average weight gain turned out to be 768 g, the Feed conversion efficiency was 1.926 and the Survival rate was 100%. In series [3] (2 ppm mixed with feed), this substance returned a Consumption of 147.94 kg. In addition, in series [3] (20 ppm mixed with feed), the “Average daily weight gain” value is 26.57 g, the Average weight gain came to 797 g, the Feed conversion efficiency was found to be 1.837 and the Survival rate amounted to 100%. In series [3] (20 ppm mixed with feed), this substance yielded a Consumption of 146.42 kg. For the same substance, the “improvement of the productivity of the broilers” value in series [3] (compared with hexahydro-β-acid in the same dosage) is “more significant than that of the broilers fed with hexahydro-β-acid in the same dosage”. Besides, in series [1], the “Content … for 20 h” value is 1.93% and the “Content … for 44 h” value is 1.82%.

Take “zinc salt of acetate ester of hexahydro-β-acid”: in series [1], the “Content … for 20 h” value worked out at 1.64% and the “Content … for 44 h” value turned out to be 0.70%.

zinc salt of hexahydro-β-acid: in series [1], the “Content … for 20 h” value amounted to 0.95% and the “Content … for 44 h” value was 0.52%.
